Data taken from patent EP0765662A1, “HIV GROWTH INHIBITORY COMPOSITION” (Kochi, Mutsuyuki, priority 1994, dated 1995).

System: HIVBRU
Assay: HIV-p24 antigen released from HIV-infected A3.01 cells stimulated with TNF-α
Type: cell-based
Conditions: AZT 2 µg/ml in place of SBA, HIV-infected A3.01 cells
Description: In view of all these test results, it appears that the inhibitory activity of SBA against the replication of HIV-1 is not attributable to that SBA directly acts on HIV so as to make lose the infectivity (infectious power) of HIV. (c) Test of examining the inhibitory activity of SBA against such replication of the viral particles of HIV which is induced when a tumor necrosis factor (TNF-α) is introduced into the HIV-infected A3.01 cells AIDS virus, HIVBRU (its reverse transcriptase activity, 0.03 cpm/cell) and 6 x 10^6 cells of the A3.01 cell (HAT-susceptible CEM cell strain) were mixed and reacted together in a culture medium at 37°C for 1 hour, and thereafter the mixed cells were washed with PBS to remove the excess of the particles of HIV virus therefrom. The A3.01 cells (5 x 10^5 cells) which had been so infected with HIV were then cultivated in various culture media containing TNF-α and SBA at different concentrations of them. The amount of the HIV-p24 antigen (an HIV-structural protein of HIV) which was released in the culture supernatant from the cultivated cells under test was periodically measured during the period of between 0 day to 5th day of the cultivation. The culture medium used for the above-mentioned cultivation of the A3.01 cells was an RPM1-1640 medium comprising 10% of heat-treated embryonic bovine serum, and minor amounts of penicillin, streptomycin, glutamine and mercaptoethanol. The amount of the HIV-p24 antigen produced was measured with lapse of time, and the relationship of the amount of the HIV-p24 antigen to the concentration of SBA is summarily tabulated in Table 4 below.
In the tests above, the replication of the viral particles of HIV was examined in terms of the amount of the p24 antigen protein produced and appearing in the culture supernatant from the cultivated cells. Thus, the amount of the p24 antigen produced was measured periodically over 6 days after the A3.01 cells were infested with HIV. It was then observed that in the absence of SBA, the replication of the viral particles of HIV was induced in the A3.01 cells by stimulation with 10 units/ml of TNF-α added. […] Thus, the effective amount of SBA has the activity to inhibit the replication of the viral particles of HIV within the cells to an extent as same as AZT, and from this it is expected that SBA is useful similarly to AZT for the therapeutic treatments of AIDS. (d) Tests for evaluating an inhibitory activity of SBA to the formation of giant cells from HIV-infected Molt-4 cells In a similar manner to that in the above Test (c), Molt-4 cells (a CD4-positive human T-cell strain) were infected with AIDS virus, HIVBRU. Thereafter, The HIV-infected Molt-4 cells were mixed with such Molt-4 cells which had no HIV-infection. And the mixture of these cells were cultivated at a high density of the mixed cells in the above-mentioned improved RPM1-1640 medium containing SBA at its different concentrations. Whereupon, there was examined the presence of cell-fused cell(s) (namely, the giant cells) which were formed by fusion of the HIV-infected cells with each other or by fusion of the HIV-infected cells with the HIV-non-infected cells. The formation and appearance of the giant cells was confirmed by microscopic observation. The size of such giant cells is clearly different from the size of the other usual cells. […] Namely, it is shown that SBA has an anti-HIV activity. […] In the initial stage of the transcription of HIV-1 gene, said NFkB, i.e. the transcription regulating factor of the host cells, plays an important role. […] NFkB is known to be a complex protein which is composed by the association of a molecule of protein having a molecular weight of about 50,000 (p50) with a molecule of protein having a molecular weight of about 65,000 (p65). […]

Measured: Amount of the HIV p24 antigen

Cc1cn([C@H]2C[C@H](N=[N+]=[N-])[C@@H](CO)O2)c(=O)[nH]c1=O [AZT, azidothymidine, reference compound]
0 pg/mL: 0th day | 1st day | 2nd day | 3rd day | 4th day | 5th day
